Non-standard residues stand in square brackets, D forms with d. Residues, ends and D or L forms follow the SMILES beside them.
Test system: pituitaries removed from 20 day old female rats
Assay: In vitro growth hormone release study (incubated rat pituitaries, GH radioimmunoassay)
Format: cell-based
Conditions: mean ± SEM, two pituitaries in 1 ml lactated Ringer's, 36° C.
Procedure: Female rats of the CD-1 strain were housed in a constant temperature room at 24° C. with 14 hours light and 10 hours darkness. The rats were fed Purina brand rat chow ab libitum.
All studies were started between 0800 and 1000 hours.
Pituitaries were removed from 20 day old female rats. Two pituitaries were incubated at 36° C. in 1 ml of lactated Ringer's solution in 10 ml polytetrafluoroethylene beakers in a Dubnoff Shaker (90 cycles/min.). The pituitaries were incubated a total of 4 hours (P1, P2, I3, and I4). After two successive one hour preincubation periods (P1, P2), the peptide was added to the incubation medium hourly for 2 hours (I3, I4).
This in vitro study was performed in triplicate and a standard radioimmunoassay of growth hormone present in the incubation medium was performed in duplicate. The hormonal activity was calculated as the difference (Δ) of growth hormone (GH) levels between I3, I4 and P2, i.e., (I3 -P2) and (I4 -P2). P values were calculated by Students' t test using six growth hormone values for each value recorded.
The growth hormone radioimmunoassay reagents were distributed by the National Institute of Arthritis and […] (NIAMDD) program. The growth hormone values were calculated in terms of nanograms (ng) of a rat standard with a growth hormone potency of 0.61 units/mg.

Row | Compound | In vitro growth hormone release (Δ GH levels, I3-P2 and I4-P2) (0.3μg peptide) | In vitro growth hormone release (Δ GH levels, I3-P2 and I4-P2) (1μg peptide) | In vitro growth hormone release (Δ GH levels, I3-P2 and I4-P2) (10μg peptide) | In vitro growth hormone release (Δ GH levels, I3-P2 and I4-P2) (0.1μg peptide) | In vitro growth hormone release (Δ GH levels, I3-P2 and I4-P2) (100μg peptide)
1 | NC(=O)[C@H](Cc1ccc(O)cc1)NC(=O)[C@@H](Cc1c[nH]c2ccccc12)NC(=O)[C@@H](Cc1c[nH]c2ccccc12)NC(=O)[C@@H](N)Cc1ccc(O)cc1 [H2 N--Tyr--D-Trp--D-trp--Tyr--CONH2, H2 N-Tyr-D-Trp-D-Trp-Tyr-CONH2] (H-Y[dW][dW]Y-NH2) | 345 ± 103 ng GH/ml incubation medium | 1111 ± 572 ng GH/ml incubation medium | 1898 ± 267 ng GH/ml incubation medium |  | 
2 | H2 N-Tyr-D-Trp-D-Trp-Phe-CONH2 [H2 N--Tyr--D-Trp--D-Trp--Phe--CONH2] |  | 686 ± 82 ng GH/ml incubation medium | 1790 ± 160 ng GH/ml incubation medium | 453 ± 48 ng GH/ml incubation medium | 984 ± 355 ng GH/ml incubation medium
